According to patent US20100022778A1, “PROCESS FOR PRODUCTION OF SULFINYLBENZIMIDAZOLE COMPOUNDS OR SALTS THEREOF” (priority 2006, published 2010):

Tested on: gastric acid secretion in dogs having chronic gastric fistula
Assay: Gastric acid secretion inhibiting effect in dogs having chronic gastric fistula (histamine-stimulated)
Type: in vivo
Settings: dog, histamine i.v.; for Gastric Acid Secretion Inhibiting Action (%): first day, 1 h 40 min to 2 h after administration; for Gastric Acid Secretion Inhibiting Persistence (%): second day (24 hours after administration)
Procedure: Using large dogs (body weight approximately 14 to 19 kg) having a chronic gastric fistula, the gastric acid secretion inhibiting action and gastric acid secretion inhibiting action persistence of test compounds of the Examples was investigated. The experiment was carried out over 2 days. On the first day, gastric juice was collected every 20 minutes under conditions of intravenously administering histamine (50 or 75 μg/kg/h) continuously for 3 hours. 1 Hour after commencing the histamine administration, the test compound suspended or dissolved in a 0.5% methylcellulose solution was administered at a volume of 0.1 ml/kg via an indwelling catheter in the duodenum. The gastric acid secretion inhibiting action of the test compound was then investigated over the subsequent 2 hours. On the second day (24 hours after the administration of the test compound), gastric juice was collected every 20 minutes under conditions of intravenously administering histamine continuously for 2 hours, and the gastric acid secretion inhibiting action persistence was investigated. After measuring the amount of gastric juice, a 0.5 ml sample of the gastric juice was taken, and neutralization titration was carried out to a pH of 7.0 with a 0.04 mol/l sodium hydroxide solution so as to measure the acid concentration. The acid concentration was multiplied by the amount of gastric juice so as to determine the gastric acid output. The gastric acid secretion inhibiting action was evaluated as the gastric acid secretion suppression rate (%) on the first day. The gastric acid secretion inhibiting action (%) was calculated using the following formula. In the case of 2 or more dogs, the mean over all of the dogs was calculated and is shown.
Gastric acid secretion inhibiting action (%)=(A−B)/A×100
[A] Gastric acid output over 20 minutes from 40 minutes to 1 hour after commencement of histamine administration [B] Gastric acid output over 20 minutes from 1 hour 40 minutes to 2 hours after administration of test compound
The gastric acid secretion inhibiting action persistence was evaluated as the gastric acid secretion suppression rate (%) on the second day. The gastric acid secretion inhibiting action persistence (%) was calculated using the following formula.
Gastric acid secretion inhibiting action persistence (%)=(C−D)/C×100
[C] Total gastric acid output from commencement of histamine administration on first day to 1 hour thereafter [D] Total gastric acid output from commencement of histamine administration on second day to 1 hour thereafter

[1] = 0.4 mg/kg i.d., mean of 10 dogs

Cc1cnc(C[S+]([O-])c2nc3ccccc3[n-]2)c(C)c1OCC1COC(C)(C)OC1.[Na+] (stereo not drawn) [Compound X, Sodium Salt of Optical Isomer Having Short Retention Time of 2-[[[4-(2,2-dimethyl-1,3-dioxan-5-yl)methoxy-3,5-dimethylpyridin-2-yl]methyl]sulfinyl]-1H-benzimidazole]
Gastric Acid Secretion Inhibiting Action (%) (0.1 mg/kg i.d., mean of 4 dogs): 8% | Gastric Acid Secretion Inhibiting Persistence (%) (0.1 mg/kg i.d., mean of 4 dogs): 6% | Gastric Acid Secretion Inhibiting Action (%) (0.2 mg/kg i.d., mean of 4 dogs): 65% | Gastric Acid Secretion Inhibiting Persistence (%) (0.2 mg/kg i.d., mean of 4 dogs): 46% | Gastric Acid Secretion Inhibiting Action (%) [1]: 97% | Gastric Acid Secretion Inhibiting Persistence (%) [1]: 77% | Gastric Acid Secretion Inhibiting Action (%) (0.8 mg/kg i.d., mean of 8 dogs): 100% | Gastric Acid Secretion Inhibiting Persistence (%) (0.8 mg/kg i.d., mean of 8 dogs): 89%
